{"source": "patent US20050112573A1", "about": "“Method of detecting toxic substance” (priority 2001, published 2005)", "system": "yeast genes (level of expressed mRNA)", "assay": "DNA chip analysis of expressed mRNA of yeast genes after 2 h culture with a toxic chemical substance", "type": "cell-based, Saccharomyces cerevisiae S288C", "method_in_brief": "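S. cerevisiae S288C grown at 25° C in YPD; toxicant added at log phase at growth-inhibitory, non-lethal levels for 2 h, untreated cells as control. Poly(A) mRNA reverse-transcribed with Cy3/Cy5-dUTP, hybridized to whole-genome chip at 65° C >12 h; value is fluorescence ratio versus untreated.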"}
{"substance": "γ-hexachlorocyclohexane [(7)]", "values": [{"measurement": "The level of expressed mRNA in the presence of chemical substance/", "setting": "yeast gene YAL053W, ratio to control without chemical", "result": 0.7}, {"measurement": "The level of expressed mRNA in the presence of chemical substance/The level of expressed mRNA in the absence of chemical substance", "setting": "yeast gene YAR010C", "result": 1.9}, {"measurement": "The level of expressed mRNA in the presence of chemical substance/The level of expressed mRNA in the absence of chemical substance", "setting": "yeast gene YBL005W-A", "result": 1.4}, {"measurement": "The level of expressed mRNA in the presence of chemical substance/The level of expressed mRNA in the absence of chemical substance", "setting": "yeast gene YBL041W", "result": 1.6}, {"measurement": "The level of expressed mRNA in the presence of chemical substance/The level of expressed mRNA in the absence of chemical substance", "setting": "yeast gene YBL043W", "result": 1.5}, {"measurement": "The level of expressed mRNA in the presence of chemical substance/", "setting": "yeast gene YBL048W, ratio to control without chemical substance, 2 h culture", "result": 1.9}, {"measurement": "The level of expressed mRNA in the presence of chemical substance/The level of expressed mRNA in the absence of chemical substance", "setting": "yeast gene YBL078C", "result": 3.1}, {"measurement": "The level of expressed mRNA in the presence of chemical substance/", "setting": "yeast gene YBL107C, ratio to control without chemical substance, 2 h culture", "result": 2.1}, {"measurement": "The level of expressed mRNA in the presence of chemical substance/in the absence of chemical substance", "setting": "yeast gene YBR036C", "result": 1.3}, {"measurement": "The level of expressed mRNA in the presence of chemical substance/The level of expressed mRNA in the absence of chemical substance", "setting": "yeast gene YBR214W", "result": 1.1}, {"measurement": "The level of expressed mRNA in the presence of chemical substance/in the absence of chemical substance", "setting": "yeast gene YBR298C", "result": 1.7}, {"measurement": "The level of expressed mRNA in the presence of chemical substance/The level of expressed mRNA in the absence of chemical substance", "setting": "yeast gene YCL020W", "result": 1.5}, {"measurement": "The level of expressed mRNA in the presence of chemical substance/The level of expressed mRNA in the absence of chemical substance", "setting": "yeast gene YCL027W", "result": 1.0}, {"measurement": "The level of expressed mRNA in the presence of chemical substance/The level of expressed mRNA in the absence of chemical substance", "setting": "yeast gene YCR004C", "result": 1.4}, {"measurement": "The level of expressed mRNA in the presence of chemical substance/The level of expressed mRNA in the absence of chemical substance", "setting": "yeast gene YCR071C", "result": 1.4}, {"measurement": "The level of expressed mRNA in the presence of chemical substance/The level of expressed mRNA in the absence of chemical substance", "setting": "yeast gene YCR088W", "result": 1.2}, {"measurement": "The level of expressed mRNA in the presence of chemical substance/The level of expressed mRNA in the absence of chemical substance", "setting": "yeast gene YDL008W", "result": 2.0}, {"measurement": "The level of expressed mRNA in the presence of chemical substance/", "setting": "yeast gene YDL072C, ratio to control without chemical", "result": 1.8}, {"measurement": "The level of expressed mRNA in the presence of chemical substance/in the absence of chemical substance", "setting": "yeast gene YDL078C", "result": 1.7}, {"measurement": "The level of expressed mRNA in the presence of chemical substance/", "setting": "yeast gene YDL204W, ratio to control without chemical", "result": 3.2}, {"measurement": "The level of expressed mRNA in the presence of chemical substance/in the absence of chemical substance", "setting": "yeast gene YDL215C", "result": 1.9}, {"measurement": "The level of expressed mRNA in the presence of chemical substance/", "setting": "yeast gene YDL222C, ratio to control without chemical", "result": 1.0}, {"measurement": "The level of expressed mRNA in the presence of chemical substance/The level of expressed mRNA in the absence of chemical substance", "setting": "yeast gene YDL238C", "result": 1.4}, {"measurement": "The level of expressed mRNA in the presence of chemical substance/The level of expressed mRNA in the absence of chemical substance", "setting": "yeast gene YDR055W", "result": 1.5}, {"measurement": "The level of expressed mRNA in the presence of chemical substance/The level of expressed mRNA in the absence of chemical substance", "setting": "yeast gene YDR084C", "result": 0.9}, {"measurement": "The level of expressed mRNA in the presence of chemical substance/The level of expressed mRNA in the absence of chemical substance", "setting": "yeast gene YDR085C", "result": 4.1}, {"measurement": "The level of expressed mRNA in the presence of chemical substance/The level of expressed mRNA in the absence of chemical substance", "setting": "yeast gene YDR104C", "result": 1.0}, {"measurement": "The level of expressed mRNA in the presence of chemical substance/The level of expressed mRNA in the absence of chemical substance", "setting": "yeast gene YDR115W", "result": 1.6}, {"measurement": "The level of expressed mRNA in the presence of chemical substance/The level of expressed mRNA in the absence of chemical substance", "setting": "yeast gene YDR259C", "result": 2.8}, {"measurement": "The level of expressed mRNA in the presence of chemical substance/in the absence of chemical substance", "setting": "yeast gene YDR297W", "result": 0.6}, {"measurement": "The level of expressed mRNA in the presence of chemical substance/The level of expressed mRNA in the absence of chemical substance", "setting": "yeast gene YDR315C", "result": 1.4}, {"measurement": "The level of expressed mRNA in the presence of chemical substance/", "setting": "yeast gene YDR330W, ratio to control without chemical substance, 2 h culture", "result": 1.3}, {"measurement": "The level of expressed mRNA in the presence of chemical substance/The level of expressed mRNA in the absence of chemical substance", "setting": "yeast gene YDR358W", "result": 2.8}, {"measurement": "The level of expressed mRNA in the presence of chemical substance/in the absence of chemical substance", "setting": "yeast gene YDR387C", "result": 1.3}, {"measurement": "The level of expressed mRNA in the presence of chemical substance/The level of expressed mRNA in the absence of chemical substance", "setting": "yeast gene YDR388W", "result": 1.1}, {"measurement": "The level of expressed mRNA in the presence of chemical substance/", "setting": "yeast gene YDR411C, ratio to control without chemical substance, 2 h culture", "result": 2.0}, {"measurement": "The level of expressed mRNA in the presence of chemical substance/The level of expressed mRNA in the absence of chemical substance", "setting": "yeast gene YDR432W", "result": 0.5}, {"measurement": "The level of expressed mRNA in the presence of chemical substance/The level of expressed mRNA in the absence of chemical substance", "setting": "yeast gene YDR481C", "result": 0.7}, {"measurement": "The level of expressed mRNA in the presence of chemical substance/The level of expressed mRNA in the absence of chemical substance", "setting": "yeast gene YDR510W", "result": 1.6}, {"measurement": "The level of expressed mRNA in the presence of chemical substance/", "setting": "yeast gene YDR511W, ratio to control without chemical substance, 2 h culture", "result": 1.5}, {"measurement": "The level of expressed mRNA in the presence of chemical substance/", "setting": "yeast gene YDR545W, ratio to control without chemical substance, 2 h culture", "result": 1.2}, {"measurement": "The level of expressed mRNA in the presence of chemical substance/", "setting": "yeast gene YEL001C, ratio to control without chemical", "result": 1.1}, {"measurement": "The level of expressed mRNA in the presence of chemical substance/The level of expressed mRNA in the absence of chemical substance", "setting": "yeast gene YEL042W", "result": 0.5}, {"measurement": "The level of expressed mRNA in the presence of chemical substance/The level of expressed mRNA in the absence of chemical substance", "setting": "yeast gene YEL066W", "result": 1.8}, {"measurement": "The level of expressed mRNA in the presence of chemical substance/", "setting": "yeast gene YER004W, ratio to control without chemical substance, 2 h culture", "result": 1.4}, {"measurement": "The level of expressed mRNA in the presence of chemical substance/", "setting": "yeast gene YER035W, ratio to control without chemical substance, 2 h culture", "result": 1.9}, {"measurement": "The level of expressed mRNA in the presence of chemical substance/The level of expressed mRNA in the absence of chemical substance", "setting": "yeast gene YER039C", "result": 1.3}, {"measurement": "The level of expressed mRNA in the presence of chemical substance/", "setting": "yeast gene YER079W, ratio to control without chemical substance, 2 h culture", "result": 1.9}, {"measurement": "The level of expressed mRNA in the presence of chemical substance/", "setting": "yeast gene YER106W, ratio to control without chemical", "result": 1.0}, {"measurement": "The level of expressed mRNA in the presence of chemical substance/The level of expressed mRNA in the absence of chemical substance", "setting": "yeast gene YER107C", "result": 1.0}, {"measurement": "The level of expressed mRNA in the presence of chemical substance/The level of expressed mRNA in the absence of chemical substance", "setting": "yeast gene YER130C", "result": 1.5}, {"measurement": "The level of expressed mRNA in the presence of chemical substance/", "setting": "yeast gene YER158C, ratio to control without chemical substance, 2 h culture", "result": 1.2}, {"measurement": "The level of expressed mRNA in the presence of chemical substance/", "setting": "yeast gene YER163C, ratio to control without chemical substance, 2 h culture", "result": 1.5}, {"measurement": "The level of expressed mRNA in the presence of chemical substance/", "setting": "yeast gene YER175C, ratio to control without chemical substance, 2 h culture", "result": 2.3}, {"measurement": "The level of expressed mRNA in the presence of chemical substance/", "setting": "yeast gene YFL006W, ratio to control without chemical substance, 2 h culture", "result": 1.0}]}
